Results on one compound are retold here after patent US20140179786A1, “Treatment of Alzheimer's Disease Using Tolfenamic Acid” (Board of Governors for Higher Education, State of Rhode …, priority 2012, published 2014).

The test system of experiment [1] is tau phosphorylated at Thr 181. The experiment can be described thus: P-tau at Thr 181 by Western blotting. It is filed as in vivo, mice. Conditions: 5 and 50 mg/kg groups vs control, p<0.05. On the procedure:
(§1) As phosphorylation of tau affects its function and its ability to bind to microtubules, it was important to test how phosphorylated tau is affected by the treatment. P-tau levels were analyzed by Western blotting using specific antibodies. P-tau at Ser 235 (as shown in FIG. 4A) and P-tau at Thr 181 (as shown in FIG. 4B) were lowered by both doses of tolfenamic acid as shown in FIGS. 4A and 4B. Tau phosphorylated at Ser 235 was lowered by about 15% as indicated by one-way ANOVA (F(2,11)=6.105, p=0.0165), Tukey-Kramer post-test p<0.05 for the C vs the 5 mg/kg group and for the C vs the 50 mg/kg group. P-tau at Thr 181 was lowered by about 30%, one-way ANOVA F(2,10)=7.272, p=0.0112, Tukey-Kramer post-test p<0.05 for the C vs the 5 mg/kg group and for the C vs the 50 mg/kg group.
A general note: A western blot detects proteins with antibodies after separation by electrophoresis.

Experiment [2] has as its system tau protein. The experiment can be described thus: total tau protein levels in mouse cortex by Western blot. Type of experiment: in vivo, mice. The conditions noted are these: 0, 5 and 50 mg/kg/day for 34 days; vs control; p<0.05; dose of the value not stated. On the procedure: (§2) It has been discovered that tolfenamic acid lowers the levels of the transcription factor Sp1, and consequently reduce the levels of an Sp1 target gene, APP, along with its pathogenic cleavage product Aβ. […] Therefore, in the study design 0, 5 and 50 mg/kg/day tolfenamic acid was administered for 34 days. […] Total mRNA levels were analyzed by real time PCR with β-actin as endogenous control. Protein expression was measured by Western blot analysis and quantified as a ratio to the house keeping protein β-actin (antibodies: T9450, Sigma-Aldrich, MO; 4970, Cell Signaling, MA). […] Values shown are the mean ±SEM.

The test system of experiment [3] is CDK5. In words: CDK5 protein levels after tolfenamic acid treatment. It is filed as in vivo, mice. Here is the method: (§3) Since Sp1 also regulates CDK5 activators, the effects of tolfenamic acid on CDK5 were also tested. […] 3A (using one-way ANOVA F(2,13)=59.647, p=2.8×10^−7 Tukey-Kramer post-test p<0.05 for the C vs the 5 mg/kg group and for the C vs the 50 mg/kg group). […] When comparing the 50 mg/kg dose group to the control however, by Tukey-Kramer test, the 40% lowering in CDK5 from control was statistically significant (p<0.05).

Experiment [4] has as its system homozygous APP YAC transgenic mice, line R1.40. In words: Morris water maze, learning and long-term memory. Type of experiment: in vivo. Here is the method: In order to examine the ability of tolfenamic acid to improve the learning and memory deficits in AD transgenic mice model, male and female homozygous APP YAC transgenic, line R1.40, and wild type C57BL/6 mice aging between 20-24 months were used. Four groups of similar age and gender variation were administered vehicle or tolfenamic acid daily via oral gavages for 34 days; one transgenic group was administered 5 mg/kg/day tolfenamic acid in corn oil (n=7); the second transgenic group was administered 50 mg/kg/day tolfenamic acid in corn oil (n=7), the third transgenic group was administered corn oil, the vehicle, and the last group which consisted of wild type C57BL/6 mice was administered vehicle (n=8). After 14 days of daily dosing, mice were tested in Morris water maze. In this task, the mice had to locate the hidden platform by learning multiple spatial relationships between the platform and the distal extra-maze cues. On the first day, mice received a habituation trial in which they were allowed to swim freely for 60 seconds. On the following day and for a total of 8 days, mice received training sessions of 3 trials daily. The starting position for each trial was randomly assigned between the four possible positions while the platform position was fixed in each trial. Each animal was allowed to swim until they find the immersed hidden platform or for a maximum of 60 seconds. […]

In experiment [5] the test system is CDK5. The experiment can be described thus: CDK5 gene expression in the cerebral cortex. It is filed as in vivo, mice. The conditions noted are these: daily administration for a month; 5 and 50 mg/kg groups vs control, p<0.05. On the procedure: as §3
In experiment [6] the test system is tau gene. The experiment can be described thus: tau mRNA expression in mouse cortex by real time PCR. The conditions noted are these: 0, 5 and 50 mg/kg/day for 34 days; vs control; dose of the value not stated. Type of experiment: in vivo, mice. On the procedure:
as §2

Experiment [7] concerns homozygous APP YAC transgenic mice, line R1.40. The experiment can be described thus: Y-maze spontaneous alternation, working memory. It is filed as in vivo. Conditions: day 33. Here is the method:
In order to examine the ability of tolfenamic acid to improve the learning and memory deficits in AD transgenic mice model, male and female homozygous APP YAC transgenic, line R1.40, and wild type C57BL/6 mice aging between 20-24 months were used. Four groups of similar age and gender variation were administered vehicle or tolfenamic acid daily via oral gavages for 34 days; one transgenic group was administered 5 mg/kg/day tolfenamic acid in corn oil (n=7); the second transgenic group was administered 50 mg/kg/day tolfenamic acid in corn oil (n=7), the third transgenic group was administered corn oil, the vehicle, and the last group which consisted of wild type C57BL/6 mice was administered vehicle (n=8). Upon conducting the 8 acquisition sessions, probe trials on Day 1 and Day 11 following the last day of training were performed to assess the long-term memory retention by studying the preference of the mice to the correct quadrant that contained the hidden platform. On day 33, mice were tested for spontaneous alternation in Y-maze, defined as the percentage of the number of arm entries different from the previous two entries divided by the total arm entries minus two. Finally, on Day 35, mice were euthanized and brain tissue was removed and stored at −80° C.

The subject of experiment [8] is tau phosphorylated at Ser 235. In words: P-tau at Ser 235 by Western blotting. The conditions noted are these: 5 and 50 mg/kg groups vs control, p<0.05. It is filed as in vivo, mice. On the procedure: as §1

As for `Cc1c(Cl)cccc1Nc1ccccc1C(=O)O` [tolfenamic acid], in experiment [1], the “lowering of P-tau at Thr 181” value is on record as “about 30%”. Besides, the “reduction of total tau protein levels” value in experiment [2] is 46%. For the same compound, the “lowering in CDK5 levels from control” value in experiment [3] (50 mg/kg dose group vs control, Tukey-Kramer p<0.05) is 40%. Besides, in experiment [3] (all dose groups, one-way ANOVA F(2,8)=4.086, p=0.059), the “CDK5 levels, lowering trend by one-way ANOVA” value is listed as “not significant”. Moreover, in experiment [4] (5 and 50 mg/kg/day, Day 1 and 11 following the 8 daily training sessions), the “% time spent in the target quadrant, probe trials (long-term memory retention)” value is “significant increase”. Besides, in experiment [4] (both doses (5 and 50 mg/kg/day), oral gavage, transgenic mice 20-24 months), the “spatial learning profile (escape latency) in daily trials” value is “improved”. For the same compound, the “lowering of CDK5 gene expression in the cerebral cortex” value in experiment [5] is “about 50%”. Moreover, in experiment [6], the “lowering of tau mRNA expression” value was determined as 48%. For the same compound, the “improvement in the behavioral profile (spontaneous alternation, Y-maze)” value in experiment [7] (5 mg/kg/day) was “did not reach significance”. Further, the “increase in the spontaneous alternation ratio in Y-maze” value in experiment [7] (50 mg/kg/day) is given as “significant”. The “lowering of tau phosphorylated at Ser 235” value in experiment [8] is recorded as “about 15%”.
